Experimental findings from patent US11345702B1 (Myoforte Therapeutics, Inc., priority 2020, dated 2022) are described below.

15-PGDH/HPGD, sequence (P15428 whole entry): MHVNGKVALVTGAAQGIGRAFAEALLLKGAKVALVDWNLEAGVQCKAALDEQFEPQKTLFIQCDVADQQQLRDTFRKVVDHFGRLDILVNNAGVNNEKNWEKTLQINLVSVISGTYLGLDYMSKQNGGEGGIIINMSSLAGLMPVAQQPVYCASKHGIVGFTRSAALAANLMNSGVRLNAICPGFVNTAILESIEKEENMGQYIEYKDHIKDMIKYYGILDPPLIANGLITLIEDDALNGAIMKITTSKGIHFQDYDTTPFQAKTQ

The assay concerns the target 15-PGDH/HPGD (Homo sapiens (Human), UniProt P15428). Briefly: hPGDH inhibitor screening biochemical assay. To be noted: read-out: hPGDH: Average IC50. The procedure: A hydroxyprostaglandin dehydrogenase inhibition screening biochemical assay can be performed to assess the synthesized inhibitors provided herein. Provided herein is an exemplary biochemical assay for hPGDH inhibitor screening.
The in vitro biochemical assay can be performed in white, 384 plates in total 20 μl reaction volume consisting of 10 nM of 15-PGDH/HPGD (R&D System #5660-DH), 15 μM Prostaglandin E2 (Sigma, Cat #P5640-10MG) and 0.25 mM (3-Nicotinamide adenine dinucleotide sodium salt (Sigma, Cat #N0632-5G) made in reaction buffer (50 mM Tris-HCl, pH 7.5, 0.01% Tween 20) at 10-point dose response curve for test/tool compounds. Briefly, 5 μl (4×) of compounds solution and 5 μl (final concentration, 10 nM) of enzyme solution is added to white 384 well plates and incubated for 10 mins at 37° C. 5 μl (4×) of Prostaglandin E2 and 5 μl (4×) of β-Nicotinamide adenine dinucleotide sodium salt is added to the wells and incubated for 10 mins at room temperature. Fluorescence is recorded at ex/em=340 nm/485 nm. The percentage (%) inhibition of enzyme activity was determined relative to positive control (1% DMSO) and IC50 was calculated using GraphPad prism software (four parameter-variable slope equation).
Turning to `O=C(Nc1ccno1)c1ccc(-n2ccc3cc(C(=O)N4CCC(F)(F)CC4)cnc32)cn1`, the IC50 (usually the point on the concentration scale where inhibition reaches its midpoint) is less than 100 nM.
In the case of `N#Cc1ccc(-n2ccc3cc(C(=O)N4CC[C@H](F)C4)cnc32)cc1` (single isomer, unassigned) [MF-DH-574] it was less than 100 nM; in that of `N#Cc1ccc(-n2ccc3cc(C(=O)N4CC[C@@H](F)C4)cnc32)cc1` (single isomer, unassigned) [MF-DH-575], less than 100 nM.
In the case of `COc1ccc(-n2c(N)nc3cc(C(=O)N4CCC(F)CC4)cnc32)cc1` [MF-DH-115] it was 100 to 1000 nM; in that of `COc1ccc(-n2c(NC(C)=O)nc3cc(C(=O)N4CCC(F)CC4)cnc32)cc1` [MF-DH-116], not below 1000 nM.
Regarding `COc1ccc(-n2c(CCNC(C)=O)nc3cc(C(=O)N4CCC(F)CC4)cnc32)cc1` [MF-DH-117], the half-inhibitory concentration (IC50) is not below 1000 nM.
The result for `COc1cc(C(=O)N2CCC(F)CC2)ccc1COc1ccccc1Cl` [MF-DH-118] reads 100 to 1000 nM; that for `O=C(c1ccc(COc2ccccc2Cl)cn1)N1CCC(F)CC1` [MF-DH-121, (5-((2-chlorophenoxy)methyl)pyridin-2-yl)(4-fluoropiperidin-1-yl)methanone], not below 1000 nM; that for `O=C(c1cnc2c(ccn2-c2cnccn2)c1)N1CCC(F)CC1` [MF-DH-123], less than 100 nM.
In the case of `COc1ccc(Cn2cnc(-n3ccc4cc(C(=O)N5CCCCC5)cnc43)c2)cc1` [MF-DH-128] it was 100 to 1000 nM; in that of `COc1ccc(Cn2cc(-n3ccc4cc(C(=O)N5CCCCC5)cnc43)cn2)cc1` [MF-DH-129], 100 to 1000 nM; in that of `O=C(c1cnc2c(ccn2-c2ccncn2)c1)N1CCC(F)CC1` [MF-DH-131], less than 100 nM.
The result for `O=C(c1cnc2c(c1)c(Cl)cn2-c1ccncn1)N1CCC(F)CC1` [MF-DH-132] reads 100 to 1000 nM; that for `O=C(c1cnc2c(ccn2-c2ccc(O)nc2)c1)N1CCC(F)CC1` [MF-DH-133], less than 100 nM; that for `O=C(c1cnc2c(ccn2-c2cccnc2)c1)N1CCC(F)CC1` [MF-DH-134], less than 100 nM.
With `O=C(c1cnc2c(c1)c(Cl)cn2-c1cccnc1)N1CCC(F)CC1` [MF-DH-135], the IC50 is less than 100 nM.
Turning to `COc1ccc(-n2cnc3cc(C(=O)N4CC(F)C4)cnc32)cc1` [MF-DH-138], the 50% inhibitory concentration (IC50) fell in the range of 100 to 1000 nM.
The result for `Cn1cc(-n2ccc3cc(C(=O)N4CCC(F)CC4)cnc32)cn1` [MF-DH-139] reads less than 100 nM; that for `Cn1cc(-n2cc(Cl)c3cc(C(=O)N4CCC(F)CC4)cnc32)cn1` [MF-DH-140], less than 100 nM; that for `COc1ccc(-n2cnc3cc(C(=O)N4CCC(F)CC4)ccc32)nc1` [MF-DH-141], less than 100 nM.
The result for `O=C(c1cnc2c(c1)c(Cl)cn2-c1cncnc1)N1CCC(F)CC1` [MF-DH-145] reads less than 100 nM; that for `O=C(c1cnc2c(ccn2-c2cnccn2)c1Cl)N1CCC(F)CC1` [MF-DH-146], less than 100 nM.
In the case of `O=C(c1cnc2c(c(Cl)cn2-c2cnccn2)c1Cl)N1CCC(F)CC1` [MF-DH-147] it was less than 100 nM; in that of `Cc1nc2c(ccn2-c2cnccn2)cc1C(=O)N1CCC(F)CC1` [MF-DH-148], not below 1000 nM.
For the compound `Cc1nc2c(cc1C(=O)N1CCC(F)CC1)c(Cl)cn2-c1cnccn1` [MF-DH-149], the concentration for half-maximal inhibition (IC50) was not below 1000 nM.
The result for `Cc1c(C(=O)N2CCC(F)CC2)cnc2c1ccn2-c1cnccn1` [MF-DH-150, (4-fluoropiperidin-1-yl)(4-methyl-1-(pyrazin-2-yl)-1H-pyrrolo[2,3-b]pyridin-5-yl)methanone] reads less than 100 nM; that for `COc1ccc(-n2ccc3cc(C(=O)N4CCC(F)CC4)cnc32)cn1` [MF-DH-157], less than 100 nM; that for `CC1(C)CCN(c2cnccn2)c2ccc(C(=O)N3CCC(F)CC3)cc21` [MF-DH-160, (4,4-dimethyl-1-(pyrazin-2-yl)-1,2,3,4-tetrahydroquinolin-6-yl)(4-fluoropiperidin-1-yl)methanone], 100 to 1000 nM.
In the case of `COc1ccc(-n2c(C)nc3cc(C(=O)N4CCC(F)CC4)cnc32)cc1` [MF-DH-176] it was 100 to 1000 nM.
The result for `Cc1cn(-c2cncnc2)c2ccc(C(=O)N3CCC(F)CC3)cc12` [MF-DH-178, (4-fluoropiperidin-1-yl)(3-methyl-1-(pyrimidin-5-yl)-1H-indol-5-yl)methanone] reads 100 to 1000 nM; that for `Cc1cn(-c2cnccn2)c2ccc(C(=O)N3CCC(F)CC3)cc12` [MF-DH-180, (4-fluoropiperidin-1-yl)(3-methyl-1-(pyrazin-2-yl)-1H-indol-5-yl)methanone], 100 to 1000 nM.
With `COc1ccc(-c2cn(C)c3cc(C(=O)N4CCC(F)CC4)cnc23)cc1` [MF-DH-181, (4-fluoropiperidin-1-yl)(3-(4-methoxyphenyl)-1-methyl-1H-pyrrolo[3,2-b]pyridin-6-yl)methanone], the half-maximal inhibitory concentration (IC50) lay in the range of 100 to 1000 nM.
The result for `CCc1nc2cc(C(=O)N3CCC(F)CC3)cnc2n1-c1ccc(OC)cc1` [MF-DH-184] reads 100 to 1000 nM; that for `COCCc1nc2cc(C(=O)N3CCC(F)CC3)cnc2n1-c1ccc(OC)cc1` [MF-DH-185], not below 1000 nM; that for `COCCc1nc2cc(C(=O)N3CCC(F)CC3)ccc2n1-c1ccc(OC)cc1` [MF-DH-186], 100 to 1000 nM.
In the case of `COc1ccc(-n2cc(Cl)c3cc(C(=O)N4CCC(F)CC4)cnc32)cc1` [MF-DH-191, (3-chloro-1-(4-methoxyphenyl)-1H-pyrrolo[2,3-b]pyridin-5-yl)(4-fluoropiperidin-1-yl)methanone] it was less than 100 nM; in that of `COc1ccc(-n2c(CCC(F)(F)F)nc3cc(C(=O)N4CCC(F)CC4)cnc32)cc1` [MF-DH-195], 100 to 1000 nM; in that of `COc1ccccc1-c1cn(C)c2cc(C(=O)N3CCC(F)CC3)cnc12` [MF-DH-200, (4-fluoropiperidin-1-yl)(3-(2-methoxyphenyl)-1-methyl-1H-pyrrolo[3,2-b]pyridin-6-yl)methanone], not below 1000 nM.
The result for `COc1ccc(-c2c[nH]c3cc(C(=O)N4CCC(F)CC4)cnc23)cc1` [MF-DH-204] reads 100 to 1000 nM; that for `O=C(c1cnc2c(c1)ncn2-c1ccc(OC(F)F)cc1)N1CCC(F)CC1` [MF-DH-222], 100 to 1000 nM.
`O=C(c1cnc2c(c1)ncn2-c1cccc(OC(F)(F)F)c1)N1CCC(F)CC1` [MF-DH-226]: the half-maximal inhibitory concentration (IC50) lay in the range of 100 to 1000 nM.
In the case of `CCC(CC)n1cnc2cc(C(=O)N3CCCCC3)cnc21` [MF-DH-236] it was 100 to 1000 nM.
The result for `O=C(c1cnc2c(c1)ncn2-c1ccc(O)cc1)N1CCC(F)CC1` [MF-DH-238] reads 100 to 1000 nM; that for `COc1ccc(-n2cc(Cl)c3cc(C(=O)N4CCCCC4)cnc32)cc1` [MF-DH-239], less than 100 nM; that for `O=C(c1cnc2c(c1)c(Cl)cn2-c1ccc2c(c1)OC(F)(F)O2)N1CCC(F)CC1` [MF-DH-250], less than 100 nM.
The result for `O=C(c1cnc2c(c1)c(Cl)cn2-c1ccc2c(c1)OC(F)(F)O2)N1CCCCC1` [MF-DH-251] reads less than 100 nM; that for `O=C(c1ccc2c(c1)c(Cl)nn2-c1cncc(Cl)c1)N1CCCCC1` [MF-DH-271], 100 to 1000 nM.
For the compound `COc1cccc(-n2nc(Cl)c3cc(C(=O)N4CCCCC4)ccc32)c1` [MF-DH-272], the 50% inhibitory concentration (IC50) is 100 to 1000 nM.
In the case of `COc1cccc(-n2cc(Cl)c3cc(C(=O)N4CCCCC4)cnc32)c1` [MF-DH-273] it was less than 100 nM.
Consider `O=C(c1cnc2c(c1)c(Cl)cn2-c1cncc(Cl)c1)N1CCCCC1` [MF-DH-274], for which the half-inhibitory concentration (IC50) was less than 100 nM.
With `COc1cncc(-n2cc(Cl)c3cc(C(=O)N4CCCCC4)cnc32)c1` [MF-DH-275], the half-inhibitory concentration (IC50) was less than 100 nM.
For `O=C(c1cnc2c(ccn2C2CCC(F)(F)CC2)c1)N1CCCCC1` [MF-DH-284], the 50% inhibitory concentration (IC50) was not below 1000 nM.
The result for `COc1ccc(-n2ccc3cc(C(=O)N4CCC(F)CC4)cnc32)cc1` [MF-DH-285] reads less than 100 nM; that for `COc1ccc(-n2ccc3c(C#N)c(C(=O)N4CCCCC4)cnc32)cc1` [MF-DH-289, 1-(4-methoxyphenyl)-5-(piperidine-1-carbonyl)-1H-pyrrolo[2,3-b]pyridine-4-carbonitrile], less than 100 nM; that for `COc1ccc(-n2ccc3c(N)c(C(=O)N4CCCCC4)cnc32)cc1` [MF-DH-290, (4-amino-1-(4-methoxyphenyl)-1H-pyrrolo[2,3-b]pyridin-5-yl)(piperidin-1-yl)methanone], less than 100 nM.
The result for `COc1cccc(-n2ccc3cc(C(=O)N4CCCCC4)cnc32)c1` [MF-DH-294] reads less than 100 nM.
The result for `O=C(c1cnc2c(ccn2-c2cncc(Cl)c2)c1)N1CCCCC1` [MF-DH-295] reads less than 100 nM; that for `COc1cncc(-n2ccc3cc(C(=O)N4CCCCC4)cnc32)c1` [MF-DH-296], less than 100 nM.
With `COc1ccc(-n2ccc3cc(C(=O)N4CCCCC4)cnc32)cc1` [MF-DH-297], the IC50 was less than 100 nM.
The result for `N#Cc1ccc(-n2ccc3cc(C(=O)N4CCCCC4)cnc32)cc1` [MF-DH-298] reads less than 100 nM; that for `NC(=O)c1ccc(-n2ccc3cc(C(=O)N4CCCCC4)cnc32)cc1` [MF-DH-299], less than 100 nM.
The result for `N#Cc1cccc(-n2ccc3cc(C(=O)N4CCCCC4)cnc32)c1` [MF-DH-300] reads less than 100 nM.
The result for `NC(=O)c1cccc(-n2ccc3cc(C(=O)N4CCCCC4)cnc32)c1` [MF-DH-301] reads less than 100 nM.
As for `CN(C)c1cccc(-n2ccc3cc(C(=O)N4CCCCC4)cnc32)c1` [MF-DH-302], the 50% inhibitory concentration (IC50) was less than 100 nM.
